Laboratory results published in paper PMC7770057 (Journal of medicinal chemistry, 2020).
“Also recorded” adds a separate entry of the source.

How the values were obtained:
MEK1/2 = details: HT-29 cells, 0.3, 1 and 3 μM; previous study; cited from earlier work
[1] = In vivo mouse PK study, single IP injection; design: species or system male Swiss Albino mice; details: mice, single IP 50 mg/kg
SK-MEL-28 cells = assay: Antiproliferation; assay type: cell-based; details: Homo sapiens, SK-MEL-28, 72 h, read-out: SK-MEL-28 GI50

Cc1ncsc1-c1ccc(CNC(=O)[C@@H]2C[C@@H](O)CN2C(=O)[C@@H](NC(=O)CCCCCCCCCCNCCCONC(=O)c2ccc(F)c(F)c2Nc2ccc(I)cc2F)C(C)(C)C)cc1 [Compound 14, (2S,4R)-1-((S)-20-(tert-Butyl)-1-(3,4-difluoro-2-((2-fluoro-4-iodophenyl)amino)phenyl)-1,18-dioxo-3-oxa-2,7,19-triazahenicosan-21-oyl)-4-hydroxy-N-(4-(4-methylthiazol-5-yl)benzyl)pyrrolidine-2-carboxamide]
MEK1/2 degradation (Western blot, words) (MEK1/2): significantly degrade MEK1/2 protein levels

Cc1ncsc1-c1ccc([C@H](C)NC(=O)[C@@H]2C[C@@H](O)CN2C(=O)[C@@H](NC(=O)CCCCCCCCCCCNCCCCONC(=O)c2ccc(F)c(F)c2Nc2ccc(I)cc2F)C(C)(C)C)cc1 [Compound 27, (2S,4R)-1-((S)-22-(tert-Butyl)-1-(3,4-difluoro-2-((2-fluoro-4-iodophenyl)amino)phenyl)-1,20-dioxo-3-oxa-2,8,21-triazatricosan-23-oyl)-4-hydroxy-N-((S)-1-(4-(4-methylthiazol-5-yl)phenyl)ethyl)pyrrolidine-2-carboxamide]
clearance comparison [1]: cleared more slowly than compound 24
plasma exposure comparison ([1]; 8 h period, 50 mg/kg): better plasma exposure than compound 24; also recorded: higher than that of the previously published MEK degrader 3
tolerability ([1]; no clinical signs or adverse effects observed): very well tolerated

CCCS(=O)(=O)Nc1ccc(F)c(C(=O)c2c[nH]c3ncc(-c4ccc(Cl)cc4)cc23)c1F [PLX4032]
GI50 (SK-MEL-28 cells): ~100 nM
